Organism: Rattus norvegicus
Assay: Open TG-GATES - Regimen: Single
Assay type: toxicity, organism-based, Sprague-Dawley
Design: regimen Single, gender Male, age 6 weeks
Details: in vivo, po, 2000 mg/kg, route gavage, dose level High; for APTT / Bas / Eos / Fbg / Hb / Ht / Lym / MCH / MCHC / MCV / Mono / Neu / PT / Plat / RBC / Ret / WBC: tissue Blood; for KIDNEY_L / KIDNEY_R / KIDNEY_TOTAL: tissue Kidney; for LIVER: tissue Liver; for A/G / ALP / ALT / AST / BUN / CRE / Ca / Cl / DBIL / GLC / IP / K / LDH / Na / PL / RALB / TBIL / TC / TG / TP / gamma-GTP: tissue Plasma

In the case of `NNC(=O)c1ccncc1` [ISONIAZID], the TERMINAL_BW (3 h) is reported as 221 g, the APTT (3 h) is reported as 20.8 s and the Bas (3 h) is reported as 0%. The Eos (3 h) was 1.2%, the Fbg (3 h) was 218.2 mg/dL and the Hb (3 h) was 13.8 g/dL. It also gave a Ht (3 h) of 38.4%, a Lym (3 h) of 73.8% and an MCH (3 h) of 22.2 pg. It also gave an MCHC (3 h) of 36%, an MCV (3 h) of 61.7 fL and a Mono (3 h) of 2%. The Neu (3 h) was 22.2%, the PT (3 h) was 12.3 s and the Plat (3 h) was 117.2 x10_4/uL. For the same compound, the RBC (3 h) was 621.8 x10_4/ul, the Ret (3 h) was 7.9% and the WBC (3 h) was 51.3 x10_2/uL. The KIDNEY_L (3 h) was 1 g, the KIDNEY_R (3 h) was 1 g and the KIDNEY_TOTAL (3 h) was 1.9 g. The LIVER (3 h) was 9.8 g, the A/G (3 h) was 1.7 and the ALP (3 h) was 760.4 IU/L. The ALT (3 h) was 31.4 IU/L, the AST (3 h) was 66.4 IU/L and the BUN (3 h) was 8.8 mg/dL. The CRE (3 h) was 0.4 mg/dL, the Ca (3 h) was 10.4 mg/dL and the Cl (3 h) was 102.4 meq/L. The DBIL (3 h) was 0.062 mg/dL, the GLC (3 h) was 221.8 mg/dL and the IP (3 h) was 10.2 mg/dL. The K (3 h) was 4 meq/L, the LDH (3 h) was 231.8 IU/L and the Na (3 h) was 141.2 meq/L. The PL (3 h) was 136 mg/dL, the RALB (3 h) was 3.6 g/dL and the TBIL (3 h) was 0.1 mg/dL. The TC (3 h) was 72.8 mg/dL, the TG (3 h) was 58.8 mg/dL and the TP (3 h) was 5.7 g/dL. The gamma-GTP (3 h) was 0.8 IU/L, the TERMINAL_BW (6 h) was 217.4 g and the APTT (6 h) was 19.1 s. For the same compound, the Bas (6 h) was 0%, the Eos (6 h) was 0.8% and the Fbg (6 h) was 231 mg/dL. For the same compound, the Hb (6 h) was 13.7 g/dL, the Ht (6 h) was 38.1% and the Lym (6 h) was 68.4%. For the same compound, the MCH (6 h) was 22 pg, the MCHC (6 h) was 36% and the MCV (6 h) was 61 fL. The Mono (6 h) was 1.6%, the Neu (6 h) was 28.2% and the PT (6 h) was 12.2 s. For the same compound, the Plat (6 h) was 128.8 x10_4/uL, the RBC (6 h) was 625.4 x10_4/ul and the Ret (6 h) was 8.1%. For the same compound, the WBC (6 h) was 60.7 x10_2/uL, the KIDNEY_L (6 h) was 1 g and the KIDNEY_R (6 h) was 1 g. It also gave a KIDNEY_TOTAL (6 h) of 1.9 g, an LIVER (6 h) of 9.6 g and an A/G (6 h) of 1.5. For the same compound, the ALP (6 h) was 774.2 IU/L, the ALT (6 h) was 27.8 IU/L and the AST (6 h) was 43.8 IU/L. For the same compound, the BUN (6 h) was 8.8 mg/dL, the CRE (6 h) was 0.5 mg/dL and the Ca (6 h) was 10.4 mg/dL. It also gave a Cl (6 h) of 104.2 meq/L, a DBIL (6 h) of 0.062 mg/dL and a GLC (6 h) of 222.4 mg/dL. For the same compound, the IP (6 h) was 9.2 mg/dL, the K (6 h) was 3.7 meq/L and the LDH (6 h) was 185.6 IU/L. It also gave a Na (6 h) of 141.8 meq/L, a PL (6 h) of 151.2 mg/dL and an RALB (6 h) of 3.5 g/dL. For the same compound, the TBIL (6 h) was 0.1 mg/dL, the TC (6 h) was 78.2 mg/dL and the TG (6 h) was 47.8 mg/dL. For the same compound, the TP (6 h) was 5.9 g/dL, the gamma-GTP (6 h) was 1 IU/L and the TERMINAL_BW (9 h) was 217 g. For the same compound, the APTT (9 h) was 18.6 s, the Bas (9 h) was 0.2% and the Eos (9 h) was 1%. The Fbg (9 h) was 230 mg/dL, the Hb (9 h) was 14 g/dL and the Ht (9 h) was 38.5%. It also gave a Lym (9 h) of 70.4%, an MCH (9 h) of 21.7 pg and an MCHC (9 h) of 36.3%. It also gave an MCV (9 h) of 59.8 fL, a Mono (9 h) of 1.8% and a Neu (9 h) of 26%. It also gave a PT (9 h) of 12.5 s, a Plat (9 h) of 131.2 x10_4/uL and an RBC (9 h) of 644 x10_4/ul. It also gave a Ret (9 h) of 7%, a WBC (9 h) of 61.3 x10_2/uL and a KIDNEY_L (9 h) of 1 g. The KIDNEY_R (9 h) was 1 g, the KIDNEY_TOTAL (9 h) was 2.1 g and the LIVER (9 h) was 9 g. For the same compound, the A/G (9 h) was 1.7, the ALP (9 h) was 823.6 IU/L and the ALT (9 h) was 23.8 IU/L. The AST (9 h) was 40.8 IU/L, the BUN (9 h) was 8.8 mg/dL and the CRE (9 h) was 0.4 mg/dL. It also gave a Ca (9 h) of 10.5 mg/dL, a Cl (9 h) of 104 meq/L and a DBIL (9 h) of 0.066 mg/dL. It also gave a GLC (9 h) of 211 mg/dL, an IP (9 h) of 9.2 mg/dL and a K (9 h) of 3.6 meq/L. It also gave an LDH (9 h) of 195.4 IU/L, a Na (9 h) of 142.4 meq/L and a PL (9 h) of 151.8 mg/dL. For the same compound, the RALB (9 h) was 3.7 g/dL, the TBIL (9 h) was 0.1 mg/dL and the TC (9 h) was 76.2 mg/dL. For the same compound, the TG (9 h) was 78 mg/dL, the TP (9 h) was 5.9 g/dL and the gamma-GTP (9 h) was 1 IU/L. For the same compound, the TERMINAL_BW (24 h) was 212.5 g, the APTT (24 h) was 18.8 s and the Bas (24 h) was 0.2%. It also gave an Eos (24 h) of 0.8%, a Fbg (24 h) of 196 mg/dL and a Hb (24 h) of 14.7 g/dL. It also gave a Ht (24 h) of 40.4%, a Lym (24 h) of 75.4% and an MCH (24 h) of 22.4 pg. For the same compound, the MCHC (24 h) was 36.4%, the MCV (24 h) was 61.6 fL and the Mono (24 h) was 3.4%. It also gave a Neu (24 h) of 19.6%, a PT (24 h) of 14.4 s and a Plat (24 h) of 152.8 x10_4/uL. For the same compound, the RBC (24 h) was 656.4 x10_4/ul, the Ret (24 h) was 2.8% and the WBC (24 h) was 41.4 x10_2/uL. For the same compound, the KIDNEY_L (24 h) was 1.1 g, the KIDNEY_R (24 h) was 1.1 g and the KIDNEY_TOTAL (24 h) was 2.2 g. For the same compound, the LIVER (24 h) was 9.5 g, the A/G (24 h) was 1.8 and the ALP (24 h) was 761.4 IU/L. It also gave an ALT (24 h) of 12 IU/L, an AST (24 h) of 25.8 IU/L and a BUN (24 h) of 14 mg/dL. The CRE (24 h) was 0.5 mg/dL, the Ca (24 h) was 10.1 mg/dL and the Cl (24 h) was 103.8 meq/L. For the same compound, the DBIL (24 h) was 0.06 mg/dL, the GLC (24 h) was 205.4 mg/dL and the IP (24 h) was 8.4 mg/dL. It also gave a K (24 h) of 3.9 meq/L, an LDH (24 h) of 203.8 IU/L and a Na (24 h) of 143 meq/L. The PL (24 h) was 114.2 mg/dL, the RALB (24 h) was 3.5 g/dL and the TBIL (24 h) was 0.1 mg/dL. For the same compound, the TC (24 h) was 47 mg/dL, the TG (24 h) was 90 mg/dL and the TP (24 h) was 5.5 g/dL. The gamma-GTP (24 h) was 0.8 IU/L.

From ChEMBL document CHEMBL3885861, “Open TG-GATES”
